Biological target: GCN2 (Homo sapiens, UniProt Q9P2K8)
Test: TR-FRET biochemical assay for inhibition of GCN2 (Example 106, for Example 1-4BB)
Details: Table 8

GCN2, sequence (Q9P2K8 whole entry): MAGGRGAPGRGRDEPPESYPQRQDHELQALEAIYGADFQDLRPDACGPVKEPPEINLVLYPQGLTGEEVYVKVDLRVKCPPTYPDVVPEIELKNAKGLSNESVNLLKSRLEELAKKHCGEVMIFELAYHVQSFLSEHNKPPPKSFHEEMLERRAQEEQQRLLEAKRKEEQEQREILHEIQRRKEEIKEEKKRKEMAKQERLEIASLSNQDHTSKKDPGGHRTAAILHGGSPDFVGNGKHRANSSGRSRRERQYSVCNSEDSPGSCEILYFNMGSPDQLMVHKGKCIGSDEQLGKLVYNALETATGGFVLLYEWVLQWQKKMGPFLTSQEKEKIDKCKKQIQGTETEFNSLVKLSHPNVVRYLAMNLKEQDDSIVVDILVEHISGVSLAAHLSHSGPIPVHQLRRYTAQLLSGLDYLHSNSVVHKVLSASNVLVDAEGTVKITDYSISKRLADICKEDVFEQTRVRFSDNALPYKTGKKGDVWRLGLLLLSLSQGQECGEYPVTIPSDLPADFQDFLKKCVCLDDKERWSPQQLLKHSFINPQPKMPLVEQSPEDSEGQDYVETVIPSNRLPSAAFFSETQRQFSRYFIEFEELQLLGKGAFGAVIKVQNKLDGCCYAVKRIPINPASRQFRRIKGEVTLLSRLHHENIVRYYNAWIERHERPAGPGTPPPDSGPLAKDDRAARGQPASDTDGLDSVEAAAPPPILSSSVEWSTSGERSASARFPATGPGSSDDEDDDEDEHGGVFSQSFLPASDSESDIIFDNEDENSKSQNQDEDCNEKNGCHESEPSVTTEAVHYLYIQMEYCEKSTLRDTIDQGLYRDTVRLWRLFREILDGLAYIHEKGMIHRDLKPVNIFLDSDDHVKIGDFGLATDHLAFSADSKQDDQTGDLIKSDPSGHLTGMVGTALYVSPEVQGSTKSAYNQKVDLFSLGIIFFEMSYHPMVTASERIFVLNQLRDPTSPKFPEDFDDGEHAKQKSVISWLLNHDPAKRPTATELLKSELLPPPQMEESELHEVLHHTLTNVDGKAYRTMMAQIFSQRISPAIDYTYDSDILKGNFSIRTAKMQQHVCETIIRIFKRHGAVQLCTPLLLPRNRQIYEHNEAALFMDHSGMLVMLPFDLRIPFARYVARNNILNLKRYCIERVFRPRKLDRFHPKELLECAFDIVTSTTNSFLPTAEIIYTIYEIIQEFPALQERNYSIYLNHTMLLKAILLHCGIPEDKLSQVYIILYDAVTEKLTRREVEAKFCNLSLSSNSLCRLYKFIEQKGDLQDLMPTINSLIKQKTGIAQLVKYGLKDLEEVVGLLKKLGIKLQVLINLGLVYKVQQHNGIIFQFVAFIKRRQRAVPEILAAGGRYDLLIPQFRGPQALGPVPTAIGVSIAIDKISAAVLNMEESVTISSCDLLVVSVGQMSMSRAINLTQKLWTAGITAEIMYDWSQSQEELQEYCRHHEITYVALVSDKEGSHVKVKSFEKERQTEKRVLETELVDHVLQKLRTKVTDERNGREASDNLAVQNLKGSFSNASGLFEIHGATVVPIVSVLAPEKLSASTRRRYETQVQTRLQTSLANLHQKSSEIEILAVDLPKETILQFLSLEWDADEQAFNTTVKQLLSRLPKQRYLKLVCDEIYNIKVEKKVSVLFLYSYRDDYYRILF

IC50 [nM]	SMILES
< 500	Cc1noc(C)c1S(=O)(=O)Nc1ccc(F)c(-c2ccc3c(-c4ncc[nH]4)n[nH]c3c2F)c1F [Example 2AZ, N-(2,4-difluoro-3-(7-fluoro-3-(1H-imidazol-2-yl)-1H-indazol-6-yl)phenyl)-3,5-dimethylisoxazole-4-sulfonamide]
< 500	COc1ncc(Cl)cc1S(=O)(=O)Nc1cccc(-c2ccc3c(-c4ncc[nH]4)n[nH]c3c2F)c1C#N [Example 2AD, 5-chloro-N-(2-cyano-3-(7-fluoro-3-(1H-imidazol-2-yl)-1H-indazol-6-yl)phenyl)-2-methoxypyridine-3-sulfonamide]
< 500	Cc1ncc(Cl)cc1S(=O)(=O)Nc1ccc(F)c(-c2ccc3c(-c4ncc[nH]4)n[nH]c3c2F)c1F [Example 2CM, 5-chloro-N-(2,4-difluoro-3-(7-fluoro-3-(1H-imidazol-2-yl)-1H-indazol-6-yl)phenyl)-2-methylpyridine-3-sulfonamide]
< 500	O=S(=O)(Nc1ccc(F)c(-c2ccc3c(-c4ncc[nH]4)n[nH]c3c2F)c1F)c1cccc(Cl)c1Cl [Example 2BL, 2,3-dichloro-N-(2,4-difluoro-3-(7-fluoro-3-(1H-imidazol-2-yl)-1H-indazol-6-yl)phenyl)-benzenesulfonamide]
< 500	Cc1ccc(F)cc1S(=O)(=O)Nc1ccc(F)c(-c2ccc3c(-c4ncc[nH]4)n[nH]c3c2F)c1F [Example 2BJ, N-(2,4-difluoro-3-(7-fluoro-3-(1H-imidazol-2-yl)-1H-indazol-6-yl)phenyl)-5-fluoro-2-methylbenzenesulfonamide]
< 500	O=S(=O)(Nc1ccc(F)c(-c2ccc3c(-c4ncc[nH]4)n[nH]c3c2F)c1F)c1c(F)cccc1F [Example 2BG, N-(2,4-difluoro-3-(7-fluoro-3-(1H-imidazol-2-yl)-1H-indazol-6-yl)phenyl)-2,6-difluorobenzenesulfonamide]
> 10000	CC(C)c1ccc(S(=O)(=O)Nc2ccc(F)c(-c3ccc4c(-c5ncc[nH]5)n[nH]c4c3F)c2F)cc1 [Example 2G, N-(2,4-difluoro-3-(7-fluoro-3-(1H-imidazol-2-yl)-1H-indazol-6-yl)phenyl)-4-isopropyl-benzenesulfonamide]
500 to 2500	COc1cccc(S(=O)(=O)Nc2ccc(F)c(-c3ccc4c(-c5ncc[nH]5)n[nH]c4c3F)c2F)n1 [Example 2AM, N-(2,4-difluoro-3-(7-fluoro-3-(1H-imidazol-2-yl)-1H-indazol-6-yl)phenyl)-6-methoxypyridine-2-sulfonamide]
< 500	Cc1nn(C(F)F)cc1S(=O)(=O)Nc1ccc(F)c(-c2ccc3c(-c4ncc[nH]4)n[nH]c3c2F)c1F [Example 2BU, N-(2,4-difluoro-3-(7-fluoro-3-(1H-imidazol-2-yl)-1H-indazol-6-yl)phenyl)-1-(difluoromethyl)-3-methyl-1H-pyrazole-4-sulfonamide]
< 500	N#Cc1cccc(S(=O)(=O)Nc2ccc(F)c(-c3ccc4c(-c5ncc[nH]5)n[nH]c4c3F)c2F)c1 [Example 2BQ, 3-cyano-N-(2,4-difluoro-3-(7-fluoro-3-(1H-imidazol-2-yl)-1H-indazol-6-yl)phenyl)-benzenesulfonamide]
< 500	COc1ncc(Cl)cc1S(=O)(=O)Nc1ncc(F)c(-c2ccc3c(-c4ncc[nH]4)n[nH]c3c2F)c1F [Example 6, 5-Chloro-N-(3,5-difluoro-4-(7-fluoro-3-(1H-imidazol-2-yl)-1H-indazol-6-yl)pyridin-2-yl)-2-methoxypyridine-3-sulfonamide]
500 to 2500	Cn1cc(S(=O)(=O)Nc2ccc(F)c(-c3ccc4c(-c5ncc[nH]5)n[nH]c4c3F)c2F)c(Cl)n1 [Example 2H, 3-chloro-N-(2,4-difluoro-3-(7-fluoro-3-(1H-imidazol-2-yl)-1H-indazol-6-yl)phenyl)-1-methyl-1H-pyrazole-4-sulfonamide]
< 500	O=S(=O)(Nc1ccc(F)c(-c2ccc3c(-c4ncc[nH]4)n[nH]c3c2F)c1F)c1cc(Cl)ccc1F [Example 2BD, 5-chloro-N-(2,4-difluoro-3-(7-fluoro-3-(1H-imidazol-2-yl)-1H-indazol-6-yl)phenyl)-2-fluorobenzenesulfonamide]
2500 to 10000	Cn1cc(S(=O)(=O)Nc2ccc(F)c(-c3ccc4c(-c5ncc[nH]5)n[nH]c4c3F)c2F)nn1 [Example 2W, N-(2,4-difluoro-3-(7-fluoro-3-(1H-imidazol-2-yl)-1H-indazol-6-yl)phenyl)-1-methyl-1H-1,2,3-triazole-4-sulfonamide]
< 500	COc1ncc(Cl)cc1S(=O)(=O)Nc1ccc(F)c(-c2ccc3c(C(=O)NCCCO)n[nH]c3c2F)c1F [Example 2CI, 6-(3-((5-chloro-2-methoxy-pyridine)-3-sulfonamido)-2,6-difluorophenyl)-7-fluoro-N-(3-hydroxypropyl)-1H-indazole-3-carboxamide]

Same assay, conditions: Table 9

IC50 [nM]	SMILES
> 10000	COc1ncc(Cl)cc1S(=O)(=O)Nc1nccc(-c2ccc3c(-c4ncc[nH]4)n[nH]c3c2F)c1F [Example 11, 5-Chloro-N-(3-fluoro-4-(7-fluoro-3-(1H-imidazol-2-yl)-1H-indazol-6-yl)pyridin-2-yl)-2-methoxypyridine-3-sulfonamide]
< 500	Cc1ncc(F)cc1S(=O)(=O)Nc1ccc(F)c(-c2ccc3c(C(=O)Nc4cnn(C)c4)n[nH]c3c2F)c1F [Example 3DR, 6-(2,6-difluoro-3-((5-fluoro-2-methylpyridine)-3-sulfon-amido)phenyl)-7-fluoro-N-(1-methyl-1H-pyrazol-4-yl)-1H-indazole-3-carboxamide]
< 500	COc1ncc(F)cc1S(=O)(=O)Nc1ccc(F)c(-c2ccc3c(C(=O)N[C@@H]4CCN(C)C4)n[nH]c3c2F)c1F [Example 3AB, 6-(3-((5-fluoro-2-methoxy-pyridine)-3-sulfonamido)-2,6-difluorophenyl)-7-fluoro-N-((R)-1-methylpyrrolidin-3-yl)-1H-indazole-3-carboxamide]
2500 to 10000	COc1ncc(F)cc1S(=O)(=O)Nc1ccc(F)c(-c2ccc3c(C(=O)Nc4cccn(C)c4=O)n[nH]c3c2F)c1F [Example 3BW, 6-(2,6-difluoro-3-((5-fluoro-2-methoxypyridine)-3-sulfonamido)phenyl)-7-fluoro-N-(1-methyl-2-oxo-1,2-dihydropyridin-3-yl)-1H-indazole-3-carboxamide]
< 500	COc1ncc(Cl)cc1S(=O)(=O)Nc1ccc(F)c(-c2ccc3c(C(=O)N[C@H]4CCN(C)C4)n[nH]c3c2F)c1F [Example 3AF, 6-(3-((5-chloro-2-methoxy-pyridine)-3-sulfonamido)-2,6-difluorophenyl)-7-fluoro-N-((S)-1-methylpyrrolidin-3-yl)-1H-indazole-3-carboxamide]
< 500	COc1ncc(Cl)cc1S(=O)(=O)Nc1ccc(F)c(-c2ccc3c(C(=O)Nc4nn[nH]n4)n[nH]c3c2F)c1F [Example 3CU, 6-(3-((5-chloro-2-methoxy-pyridine)-3-sulfonamido)-2,6-difluorophenyl)-7-fluoro-N-(2H-tetrazol-5-yl)-1H-indazole-3-carboxamide]
500 to 2500	COc1ncc(F)cc1S(=O)(=O)Nc1ccc(F)c(-c2ccc3c(C(=O)NCC(N)=O)n[nH]c3c2F)c1F [Example 3AM, N-(2-amino-2-oxoethyl)-6-(2,6-difluoro-3-((5-fluoro-2-methoxypyridine)-3-sulfon-amido)phenyl)-7-fluoro-1H-indazole-3-carboxamide]
< 500	Cn1cc(NC(=O)c2n[nH]c3c(F)c(-c4c(F)ccc(NS(=O)(=O)c5cc(F)cc6c5CCC6O)c4F)ccc23)cn1 (stereo not shown) [Example 4AI]
500 to 2500	COc1ncc(F)cc1S(=O)(=O)Nc1cccc(-c2ccc3c(-c4ncc[nH]4)n[nH]c3c2C)c1F [Example 22, N-(3-(3-(1H-Imidazol-2-yl)-7-methyl-1H-indazol-6-yl)-2-fluorophenyl)-5-fluoro-2-methoxypyridine-3-sulfonamide]
< 500	COc1ncc(F)cc1S(=O)(=O)Nc1ccc(F)c(-c2ccc3c(C(=O)Nc4cn[nH]c4)n[nH]c3c2F)c1F [Example 3BO, 6-(2,6-difluoro-3-((5-fluoro-2-methoxypyridine)-3-sulfonamido)phenyl)-7-fluoro-N-(1H-pyrazol-4-yl)-1H-indazole-3-carboxamide]
< 500	COc1ncc(F)cc1S(=O)(=O)Nc1ccc(F)c(-c2ccc3c(C(=O)NCCCO)n[nH]c3c2F)c1F [Example 3R, 6-(2,6-difluoro-3-((5-fluoro-2-methoxypyridine)-3-sulfonamido)phenyl)-7-fluoro-N-(3-hydroxypropyl)-1H-indazole-3-carboxamide]
2500 to 10000	COc1ncc(Cl)cc1S(=O)(=O)Nc1ccc(F)c(-c2ccc3c(C(=O)Nc4cc(F)cc(Cl)c4)n[nH]c3c2F)c1F [Example 3DA, 6-(3-((5-chloro-2-methoxy-pyridine)-3-sulfonamido)-2,6-difluorophenyl)-N-(3-chloro-5-fluorophenyl)-7-fluoro-1H-indazole-3-carboxamide]
< 500	COc1ncc(F)cc1S(=O)(=O)Nc1ccc(F)c(-c2ccc3c(C(=O)NCC(CO)CO)n[nH]c3c2F)c1F [Example 3AT, 6-(2,6-difluoro-3-((5-fluoro-2-methoxypyridine)-3-sulfonamido)phenyl)-7-fluoro-N-(3-hydroxy-2-(hydroxymethyl)propyl)-1H-indazole-3-carboxamide]
500 to 2500	Cc1ncc(F)cc1S(=O)(=O)Nc1cccc(-c2ccc3c(-c4ncc[nH]4)n[nH]c3c2C)c1F [Example 3Y, N-(3-(3-(1H-imidazol-2-yl)-7-methyl-1H-indazol-6-yl)-2-fluorophenyl)-5-fluoro-2-methylpyridine-3-sulfonamide]
< 500	COc1ncc(F)cc1S(=O)(=O)Nc1ccc(F)c(-c2ccc3c(C(=O)Nc4ccc(C)nc4)n[nH]c3c2F)c1F [Example 3BX, 6-(2,6-difluoro-3-((5-fluoro-2-methoxypyridine)-3-sulfonamido)phenyl)-7-fluoro-N-(6-methylpyridin-3-yl)-1H-indazole-3-carboxamide]
< 500	COc1nc(C)c(C#N)cc1S(=O)(=O)Nc1ccc(F)c(-c2ccc3c(-c4ncc[nH]4)n[nH]c3c2F)c1F [Example 3DK, 5-cyano-N-(2,4-difluoro-3-(7-fluoro-3-(1H-imidazol-2-yl)-1H-indazol-6-yl)phenyl)-2-methoxy-6-methylpyridine-3-sulfonamide]

From patent US20220388964A1 (HiberCell, Inc., priority 2019, published 2022)
